Source: US7566791B2, “Substituted 3-carbonyl-1h-indol-1yl acetic acid derivatives as inhibitors of plasminogen activator inhibitor-1 (PAI-1)” (Wyeth, priority 2002, dated 2009)

Assays:
[1] = target: T1, recombinant human plasminogen activator inhibitor-1 (Homo sapiens, UniProt P05121); experiment: Primary screen for the PAI-1 inhibition (residual tPA activity, chromogenic Spectrozyme-tPA); type: biochemical; settings: 25 uM test compound; pH 6.6 buffer, 140 nM PAI-1, 70 nM tPA
T1 construct: purchased Molecular Innovations, Royal Oak, Mich
T1 sequence (P05121 24-402): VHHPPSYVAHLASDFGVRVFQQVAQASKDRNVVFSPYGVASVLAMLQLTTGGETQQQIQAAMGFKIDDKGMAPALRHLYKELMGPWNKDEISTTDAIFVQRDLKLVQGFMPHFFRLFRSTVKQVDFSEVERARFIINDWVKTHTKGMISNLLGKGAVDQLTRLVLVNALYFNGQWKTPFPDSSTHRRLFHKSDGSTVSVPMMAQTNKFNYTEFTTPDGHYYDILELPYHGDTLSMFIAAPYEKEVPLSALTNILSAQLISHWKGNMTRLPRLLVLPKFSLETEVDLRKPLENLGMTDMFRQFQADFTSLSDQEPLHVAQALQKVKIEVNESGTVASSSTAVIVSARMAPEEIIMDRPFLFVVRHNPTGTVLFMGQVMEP
Method: Primary Screen for the PAI-1 Inhibition
Test compounds were dissolved in DMSO at a final concentration of 10 mM, then diluted 100× in physiologic buffer. The inhibitory assay was initiated by the addition of the test compound (1-100 μM final concentration, maximum DMSO concentration of 0.2%) in a pH 6.6 buffer containing 140 nM recombinant human plasminogen activator inhibitor-1 (Molecular Innovations, Royal Oak, Mich.). Following a 1 hour incubation at room temperature, 70 nM of recombinant human tissue plasminogen activator (tPA) was added, and the combination of the test compound, PAI-1 and tPA was incubated for an additional 30 minutes. Following the second incubation, Spectrozyme-tPA (American Diagnostica, Greenwich, Conn.), a chromogenic substrate for tPA, was added and absorbance was read at 405 nm at 0 and 60 minutes. Relative PAI-1 inhibition was equal to the residual tPA activity in the presence of the test compound and PAI-1. Control treatments included the complete inhibition of tPA by PAI-1 at the molar ratio employed (2:1), and the absence of any effect of the test compound on tPA alone.

**Q.** With `O=C(O)Cn1cc(C(=O)c2ccc(Cl)cc2)c2cc(-c3ccc(Cl)cc3)ccc21` [Example 1, [3-(4-chlorobenzoyl)-5-(4-chlorophenyl)-1H-indol-1-yl]acetic acid] as the molecule, how does the melting point read?
**A.** 255 to 257 °C

**Q.** And the inhibition at 25 µM [1]?
**A.** 47%

**Q.** For `Cc1ccc(-c2ccc3c(c2)c(C(=O)c2cc4ccccc4s2)cn3CC(=O)O)cc1` [Example 2, [3-(Benzo[b]thiophene-2-carbonyl)-5-(4-methylphenyl)-1H-indol-1-yl]-acetic acid], which inhibition at 25 µM [1] is on record?
**A.** 45%

**Q.** Which inhibition at 25 µM [1] does the source give for `Cc1ccc(-c2ccc3c(c2)c(C(=O)c2ccc(Cl)cc2)cn3CC(=O)O)cc1` [Example 3, [3-(4-chlorobenzoyl)-5-(4-methylphenyl)-1H-indol-1-yl]-acetic acid] here?
**A.** 46%
